SMILES strings stand for the structures. Calls of active or inactive are those of the source. For most assays here, no stated cut-off is given here; in the data, actives have a measured Kd and inactives only a lower limit.

For test [1], the target named is Dual specificity mitogen-activated protein kinase kinase 2 (Homo sapiens, UniProt P36507).
Test [2] deals with T1, Dual specificity mitogen-activated protein kinase kinase 3 (Homo sapiens, UniProt P46734).
T1 sequence (P46734 whole entry): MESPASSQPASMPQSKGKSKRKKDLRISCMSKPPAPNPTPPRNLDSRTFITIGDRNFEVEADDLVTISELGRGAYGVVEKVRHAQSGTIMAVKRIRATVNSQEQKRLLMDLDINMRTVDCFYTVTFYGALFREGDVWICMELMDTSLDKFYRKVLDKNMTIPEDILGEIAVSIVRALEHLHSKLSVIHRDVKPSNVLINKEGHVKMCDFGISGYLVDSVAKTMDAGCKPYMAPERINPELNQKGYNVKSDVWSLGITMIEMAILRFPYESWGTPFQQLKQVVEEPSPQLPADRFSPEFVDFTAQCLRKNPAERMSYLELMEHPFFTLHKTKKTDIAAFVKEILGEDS

A further test has as its target Ephrin type-A receptor 5 (Homo sapiens, UniProt P54756).
Test [3] addresses Ribosomal protein S6 kinase alpha-6 (Homo sapiens, UniProt Q9UK32).
The target of test [4] is RAC-alpha serine/threonine-protein kinase (Homo sapiens, UniProt P31749).
The next test addresses T2, Ephrin type-B receptor 6 (Homo sapiens, UniProt O15197).
T2 sequence (O15197 whole entry): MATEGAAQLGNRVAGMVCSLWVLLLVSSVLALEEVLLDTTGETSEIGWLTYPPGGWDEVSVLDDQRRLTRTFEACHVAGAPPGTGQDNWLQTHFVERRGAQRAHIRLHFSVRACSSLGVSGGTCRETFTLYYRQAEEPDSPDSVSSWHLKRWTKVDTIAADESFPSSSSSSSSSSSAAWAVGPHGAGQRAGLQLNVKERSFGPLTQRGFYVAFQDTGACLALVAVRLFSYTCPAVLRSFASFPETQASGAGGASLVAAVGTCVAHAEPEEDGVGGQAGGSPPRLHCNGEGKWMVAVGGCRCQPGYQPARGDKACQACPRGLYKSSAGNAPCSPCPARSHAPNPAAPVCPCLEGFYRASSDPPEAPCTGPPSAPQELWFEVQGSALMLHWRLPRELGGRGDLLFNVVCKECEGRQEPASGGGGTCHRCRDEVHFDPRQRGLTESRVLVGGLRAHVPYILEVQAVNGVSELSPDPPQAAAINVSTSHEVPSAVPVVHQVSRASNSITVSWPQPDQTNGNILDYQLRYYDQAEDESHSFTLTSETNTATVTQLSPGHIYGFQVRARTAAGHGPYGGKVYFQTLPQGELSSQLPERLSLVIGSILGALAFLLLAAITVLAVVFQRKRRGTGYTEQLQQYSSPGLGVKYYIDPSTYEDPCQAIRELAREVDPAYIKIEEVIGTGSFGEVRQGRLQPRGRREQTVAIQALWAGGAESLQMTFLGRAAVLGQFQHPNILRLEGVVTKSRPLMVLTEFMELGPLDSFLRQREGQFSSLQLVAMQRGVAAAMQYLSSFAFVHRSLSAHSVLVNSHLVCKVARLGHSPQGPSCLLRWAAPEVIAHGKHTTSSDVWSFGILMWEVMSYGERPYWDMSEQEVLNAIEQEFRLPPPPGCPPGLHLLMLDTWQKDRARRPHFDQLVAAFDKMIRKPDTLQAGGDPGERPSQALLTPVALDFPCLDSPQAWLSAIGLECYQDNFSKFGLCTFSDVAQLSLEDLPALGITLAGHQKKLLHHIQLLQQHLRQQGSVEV

The target of test [5] is MAP kinase-activated protein kinase 2 (Homo sapiens, UniProt P49137).
Test [6] addresses T3, Electron transfer flavoprotein subunit beta (Homo sapiens, UniProt P38117).
T3 sequence (P38117 whole entry): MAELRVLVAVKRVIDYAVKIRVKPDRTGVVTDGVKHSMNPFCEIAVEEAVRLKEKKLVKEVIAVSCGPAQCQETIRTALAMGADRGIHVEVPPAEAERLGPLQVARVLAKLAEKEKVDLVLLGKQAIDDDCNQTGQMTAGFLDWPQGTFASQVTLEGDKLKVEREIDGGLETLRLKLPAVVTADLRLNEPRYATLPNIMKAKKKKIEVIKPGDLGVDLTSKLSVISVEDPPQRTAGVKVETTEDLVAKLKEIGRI

Test [7] concerns the target DnaJ homolog subfamily A member 1 (Homo sapiens, UniProt P31689).
In test [8] the target is Interleukin-1 receptor-associated kinase 1 (Homo sapiens, UniProt P51617).
Test [9] deals with Glycogen synthase kinase-3 alpha (Homo sapiens, UniProt P49840).
Test [10] concerns the target Atypical kinase COQ8A, mitochondrial (Homo sapiens, UniProt Q8NI60).
Test [11] concerns the target T4, Membrane-associated tyrosine- and threonine-specific cdc2-inhibitory kinase (Homo sapiens, UniProt Q99640).
T4 sequence (Q99640 whole entry): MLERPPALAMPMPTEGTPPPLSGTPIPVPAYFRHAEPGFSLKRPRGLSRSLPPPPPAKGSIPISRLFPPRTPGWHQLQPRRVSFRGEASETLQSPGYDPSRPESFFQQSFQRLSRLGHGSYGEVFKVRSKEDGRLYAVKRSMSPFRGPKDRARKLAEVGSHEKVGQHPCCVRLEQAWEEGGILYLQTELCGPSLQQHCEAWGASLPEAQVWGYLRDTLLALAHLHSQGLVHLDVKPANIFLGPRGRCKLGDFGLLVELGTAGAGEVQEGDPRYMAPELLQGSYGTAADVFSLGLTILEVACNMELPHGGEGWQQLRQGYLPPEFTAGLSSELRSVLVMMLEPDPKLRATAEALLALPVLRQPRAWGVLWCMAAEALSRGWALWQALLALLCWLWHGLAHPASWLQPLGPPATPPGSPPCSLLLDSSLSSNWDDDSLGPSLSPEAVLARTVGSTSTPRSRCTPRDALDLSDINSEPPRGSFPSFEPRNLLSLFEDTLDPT

For test [12], the target named is Serine/threonine-protein kinase 10 (Homo sapiens, UniProt O94804).
Test [13] addresses Dual specificity protein kinase CLK1 (Homo sapiens, UniProt P49759).
Test [14] has as its target BMP-2-inducible protein kinase (Homo sapiens, UniProt Q9NSY1).

MAP kinase-activated protein kinase 2, sequence (P49137 whole entry): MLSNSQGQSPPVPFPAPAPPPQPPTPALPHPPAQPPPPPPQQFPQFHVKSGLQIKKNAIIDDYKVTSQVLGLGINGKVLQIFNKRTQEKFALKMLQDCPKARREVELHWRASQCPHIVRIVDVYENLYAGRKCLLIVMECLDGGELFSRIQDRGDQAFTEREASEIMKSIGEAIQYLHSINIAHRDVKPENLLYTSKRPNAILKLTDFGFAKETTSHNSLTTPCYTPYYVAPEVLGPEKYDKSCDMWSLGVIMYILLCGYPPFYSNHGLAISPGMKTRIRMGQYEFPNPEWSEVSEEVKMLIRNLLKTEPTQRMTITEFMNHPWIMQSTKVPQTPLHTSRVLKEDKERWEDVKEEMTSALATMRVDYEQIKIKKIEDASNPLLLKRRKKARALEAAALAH
DnaJ homolog subfamily A member 1, sequence (P31689 whole entry): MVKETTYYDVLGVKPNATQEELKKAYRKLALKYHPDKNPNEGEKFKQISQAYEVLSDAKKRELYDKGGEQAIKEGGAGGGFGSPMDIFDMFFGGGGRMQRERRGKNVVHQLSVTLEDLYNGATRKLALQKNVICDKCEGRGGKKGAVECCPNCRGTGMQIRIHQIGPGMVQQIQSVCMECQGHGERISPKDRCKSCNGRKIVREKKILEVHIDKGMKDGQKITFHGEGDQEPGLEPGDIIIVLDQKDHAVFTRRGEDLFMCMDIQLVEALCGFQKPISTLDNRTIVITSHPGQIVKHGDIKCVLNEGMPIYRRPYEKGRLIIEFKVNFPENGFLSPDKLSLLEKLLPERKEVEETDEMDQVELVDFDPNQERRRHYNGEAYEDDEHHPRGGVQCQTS
Serine/threonine-protein kinase 10, sequence (O94804 whole entry): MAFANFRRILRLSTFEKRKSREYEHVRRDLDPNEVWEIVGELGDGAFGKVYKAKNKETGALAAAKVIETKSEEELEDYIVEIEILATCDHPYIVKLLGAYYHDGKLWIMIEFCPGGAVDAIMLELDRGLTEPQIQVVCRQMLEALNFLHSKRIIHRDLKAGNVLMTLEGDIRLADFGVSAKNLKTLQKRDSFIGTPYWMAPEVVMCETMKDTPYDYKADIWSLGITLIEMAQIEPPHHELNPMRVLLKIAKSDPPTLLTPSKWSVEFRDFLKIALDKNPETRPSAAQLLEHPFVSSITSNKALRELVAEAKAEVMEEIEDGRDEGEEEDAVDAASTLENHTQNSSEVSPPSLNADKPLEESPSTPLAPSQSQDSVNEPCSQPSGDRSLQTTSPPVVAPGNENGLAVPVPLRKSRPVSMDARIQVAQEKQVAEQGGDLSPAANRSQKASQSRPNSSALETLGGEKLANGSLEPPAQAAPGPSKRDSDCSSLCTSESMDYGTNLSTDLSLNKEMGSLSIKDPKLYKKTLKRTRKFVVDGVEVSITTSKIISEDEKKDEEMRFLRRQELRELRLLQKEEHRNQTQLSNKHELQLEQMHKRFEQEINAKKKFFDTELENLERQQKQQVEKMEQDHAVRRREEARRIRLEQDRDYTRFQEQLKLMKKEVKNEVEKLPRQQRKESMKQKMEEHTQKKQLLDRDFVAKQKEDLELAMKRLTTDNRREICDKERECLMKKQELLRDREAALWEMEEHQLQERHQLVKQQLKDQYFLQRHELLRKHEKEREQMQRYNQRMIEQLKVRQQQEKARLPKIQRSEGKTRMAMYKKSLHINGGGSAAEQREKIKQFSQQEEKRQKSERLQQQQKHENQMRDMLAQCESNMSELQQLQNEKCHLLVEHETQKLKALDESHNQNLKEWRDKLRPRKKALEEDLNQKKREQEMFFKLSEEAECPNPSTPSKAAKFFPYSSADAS
RAC-alpha serine/threonine-protein kinase, sequence (P31749 whole entry): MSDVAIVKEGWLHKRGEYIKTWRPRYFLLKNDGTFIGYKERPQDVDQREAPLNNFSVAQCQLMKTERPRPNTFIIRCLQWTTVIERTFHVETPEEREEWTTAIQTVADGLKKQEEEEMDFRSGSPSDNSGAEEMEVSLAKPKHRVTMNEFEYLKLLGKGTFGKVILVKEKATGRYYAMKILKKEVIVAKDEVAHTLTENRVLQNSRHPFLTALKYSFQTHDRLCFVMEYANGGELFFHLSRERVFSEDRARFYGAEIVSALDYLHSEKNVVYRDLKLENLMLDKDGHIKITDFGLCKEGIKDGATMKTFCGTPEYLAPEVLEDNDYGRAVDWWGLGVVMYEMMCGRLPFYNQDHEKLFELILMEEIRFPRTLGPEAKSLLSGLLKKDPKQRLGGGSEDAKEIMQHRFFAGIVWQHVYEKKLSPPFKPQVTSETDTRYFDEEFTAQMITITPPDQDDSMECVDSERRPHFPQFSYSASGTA
Ephrin type-A receptor 5, sequence (P54756 whole entry): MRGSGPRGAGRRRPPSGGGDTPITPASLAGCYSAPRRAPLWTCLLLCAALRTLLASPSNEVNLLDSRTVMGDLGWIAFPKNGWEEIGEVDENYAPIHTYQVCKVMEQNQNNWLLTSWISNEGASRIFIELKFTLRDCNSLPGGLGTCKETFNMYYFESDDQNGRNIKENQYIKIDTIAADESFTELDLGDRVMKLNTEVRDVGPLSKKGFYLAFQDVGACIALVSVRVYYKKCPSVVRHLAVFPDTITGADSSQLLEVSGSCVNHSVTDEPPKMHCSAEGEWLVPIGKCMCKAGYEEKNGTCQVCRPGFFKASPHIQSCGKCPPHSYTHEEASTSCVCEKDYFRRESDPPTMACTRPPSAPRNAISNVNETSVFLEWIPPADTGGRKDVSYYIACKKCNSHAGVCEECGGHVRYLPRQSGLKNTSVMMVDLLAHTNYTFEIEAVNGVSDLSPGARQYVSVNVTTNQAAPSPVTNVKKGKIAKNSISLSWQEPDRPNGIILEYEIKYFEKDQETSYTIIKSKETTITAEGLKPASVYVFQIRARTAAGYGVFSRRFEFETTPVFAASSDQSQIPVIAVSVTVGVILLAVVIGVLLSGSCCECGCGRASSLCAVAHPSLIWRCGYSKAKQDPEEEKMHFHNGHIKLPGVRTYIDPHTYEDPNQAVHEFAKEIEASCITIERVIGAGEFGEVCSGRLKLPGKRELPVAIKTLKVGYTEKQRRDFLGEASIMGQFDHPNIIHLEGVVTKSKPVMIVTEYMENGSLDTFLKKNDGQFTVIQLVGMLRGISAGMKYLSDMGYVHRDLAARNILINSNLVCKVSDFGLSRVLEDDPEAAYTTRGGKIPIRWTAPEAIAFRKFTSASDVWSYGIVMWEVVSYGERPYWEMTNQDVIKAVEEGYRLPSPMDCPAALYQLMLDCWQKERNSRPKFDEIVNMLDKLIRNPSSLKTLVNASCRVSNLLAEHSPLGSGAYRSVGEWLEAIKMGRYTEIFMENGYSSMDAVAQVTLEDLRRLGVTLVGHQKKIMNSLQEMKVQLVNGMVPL
Glycogen synthase kinase-3 alpha, sequence (P49840 whole entry): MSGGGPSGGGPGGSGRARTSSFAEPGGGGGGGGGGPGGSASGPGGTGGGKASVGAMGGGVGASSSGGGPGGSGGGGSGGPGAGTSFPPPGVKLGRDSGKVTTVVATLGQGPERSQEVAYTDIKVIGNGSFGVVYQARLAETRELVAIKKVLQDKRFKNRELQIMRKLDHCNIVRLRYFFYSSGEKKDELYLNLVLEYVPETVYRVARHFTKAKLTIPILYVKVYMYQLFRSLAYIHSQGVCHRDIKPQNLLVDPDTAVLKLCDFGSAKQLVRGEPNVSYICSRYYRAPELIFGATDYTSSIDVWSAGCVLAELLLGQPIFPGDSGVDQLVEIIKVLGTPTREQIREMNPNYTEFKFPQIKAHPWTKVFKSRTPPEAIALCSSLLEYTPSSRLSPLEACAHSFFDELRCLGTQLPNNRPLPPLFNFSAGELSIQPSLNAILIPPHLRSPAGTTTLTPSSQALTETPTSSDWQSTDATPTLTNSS
Ribosomal protein S6 kinase alpha-6, sequence (Q9UK32 whole entry): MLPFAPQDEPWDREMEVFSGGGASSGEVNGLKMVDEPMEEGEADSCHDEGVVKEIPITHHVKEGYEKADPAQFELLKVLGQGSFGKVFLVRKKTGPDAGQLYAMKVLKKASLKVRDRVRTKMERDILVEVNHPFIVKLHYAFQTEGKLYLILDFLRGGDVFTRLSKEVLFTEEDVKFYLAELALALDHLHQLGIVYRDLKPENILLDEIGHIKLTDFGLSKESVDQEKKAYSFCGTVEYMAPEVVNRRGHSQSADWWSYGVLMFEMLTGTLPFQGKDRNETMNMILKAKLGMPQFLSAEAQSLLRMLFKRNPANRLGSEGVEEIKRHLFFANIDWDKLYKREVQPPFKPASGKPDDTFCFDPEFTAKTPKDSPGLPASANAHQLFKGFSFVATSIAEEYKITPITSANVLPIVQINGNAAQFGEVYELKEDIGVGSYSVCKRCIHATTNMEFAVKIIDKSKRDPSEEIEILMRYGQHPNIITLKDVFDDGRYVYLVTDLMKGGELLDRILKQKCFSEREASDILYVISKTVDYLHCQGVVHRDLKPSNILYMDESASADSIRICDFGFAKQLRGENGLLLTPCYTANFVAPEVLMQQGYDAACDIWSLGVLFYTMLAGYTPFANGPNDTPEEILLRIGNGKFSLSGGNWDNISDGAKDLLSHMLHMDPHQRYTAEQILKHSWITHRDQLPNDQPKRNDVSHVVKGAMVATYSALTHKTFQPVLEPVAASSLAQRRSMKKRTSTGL
Dual specificity protein kinase CLK1, sequence (P49759 whole entry): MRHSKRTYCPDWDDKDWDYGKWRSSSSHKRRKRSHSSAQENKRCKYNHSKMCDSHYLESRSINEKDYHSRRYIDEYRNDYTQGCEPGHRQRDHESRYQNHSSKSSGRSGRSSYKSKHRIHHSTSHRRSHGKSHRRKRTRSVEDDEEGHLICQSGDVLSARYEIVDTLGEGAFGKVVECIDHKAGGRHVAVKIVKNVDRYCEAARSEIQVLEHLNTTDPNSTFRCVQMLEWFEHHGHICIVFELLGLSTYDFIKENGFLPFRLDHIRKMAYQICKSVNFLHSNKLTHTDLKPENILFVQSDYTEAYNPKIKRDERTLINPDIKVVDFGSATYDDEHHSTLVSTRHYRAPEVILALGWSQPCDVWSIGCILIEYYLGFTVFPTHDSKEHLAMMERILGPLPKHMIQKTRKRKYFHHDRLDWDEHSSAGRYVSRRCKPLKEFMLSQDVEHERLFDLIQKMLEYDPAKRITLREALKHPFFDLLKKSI

In the case of `CNC(=O)c1cc(Oc2ccc(NC(=O)Nc3ccc(Cl)c(C(F)(F)F)c3)c(F)c2)ccn1` [REGORAFENIB], the Kd in test [1] was > 30 µM (inactive); in test [2], > 30 µM (inactive); at Ephrin type-A receptor 5, 1.12 µM; in [3], > 30 µM (inactive); in [4], > 30 µM (inactive); at Ephrin type-B receptor 6, > 30 µM (inactive). Besides, the Kd was 0.682 µM (active) in [5]; > 30 µM (inactive) in test [6]; > 30 µM (inactive) in [7]; > 30 µM (inactive) in test [8]; > 30 µM (inactive) in test [9]; > 30 µM (inactive) in test [10]. Besides, the Kd in [11] is > 30 µM (inactive); in test [12], > 30 µM (inactive); in test [13] it was 2.11 µM (active); in [14] it was > 30 µM (inactive).

`COc1cc2nccc(Oc3ccc(NC(=O)Nc4cc(C)on4)c(Cl)c3)c2cc1OC` [TIVOZANIB]: the Kd was > 30 µM (inactive) in [1]; > 30 µM (inactive) in test [2]; 0.601 µM (active) at Ephrin type-A receptor 5; > 30 µM (inactive) in test [3]; > 30 µM (inactive) in test [4]; > 30 µM (inactive) on Ephrin type-B receptor 6. Also, the Kd in test [5], in test [6], in test [7], in [8], in test [9] and in [10] was > 30 µM (inactive) each time. Further, the Kd in test [11] is > 30 µM (inactive); in test [12], 4.62 µM (active); in test [13], > 30 µM (inactive); in test [14], > 30 µM (inactive).

Regarding `CCCS(=O)(=O)Nc1ccc(F)c(C(=O)c2c[nH]c3ncc(-c4ccc(Cl)cc4)cc23)c1F` [VEMURAFENIB], the Kd (in test [1]; in test [2]; on Ephrin type-A receptor 5; in test [3]; in [4]; at Ephrin type-B receptor 6) was > 30 µM (inactive) throughout. Besides, the Kd in [5], in test [6], in [7], in test [8], in [9] and in test [10] was > 30 µM (inactive) each time. Besides, the Kd in [11], in [12], in [13] and in test [14] was > 30 µM (inactive) throughout.

With `O=C(O)[C@]1(Cc2cccc(Nc3nccs3)n2)CC[C@@H](Oc2cccc(Cl)c2F)CC1` [MK-5108], the Kd (in test [1]; in test [2]; at Ephrin type-A receptor 5; in [3]; in test [4]; on Ephrin type-B receptor 6) was > 30 µM (inactive) throughout. In addition, the Kd in test [5] was > 30 µM (inactive); in test [6] it was > 30 µM (inactive); in test [7], > 30 µM (inactive); in test [8] it was 1.58 µM (active); in [9] it was > 30 µM (inactive); in test [10] it was > 30 µM (inactive). Further, the Kd in [11] is > 30 µM (inactive); in test [12], 1.09 µM (active); in test [13] it was > 30 µM (inactive); in test [14] it was > 30 µM (inactive).

For `CC[C@@H]1C(=O)N(C)c2cnc(Nc3ccc(C(=O)N[C@H]4CC[C@H](N5CCN(CC6CC6)CC5)CC4)cc3OC)nc2N1C(C)C` [VOLASERTIB], the Kd (in test [1]; in test [2]; at Ephrin type-A receptor 5; in test [3]; in [4]; at Ephrin type-B receptor 6) was > 30 µM (inactive) each time. For the same molecule, the Kd in [5], in test [6], in [7], in test [8], in test [9] and in test [10] was > 30 µM (inactive) in each case. The Kd in test [11], in test [12], in test [13] and in [14] was > 30 µM (inactive) each time.

For `Cc1cc(-c2cc(O)ccc2Cl)cc2nnc(Nc3ccc(OCCN4CCCC4)cc3)nc12`, the Kd in test [1] is > 30 µM (inactive); in test [2] it was > 30 µM (inactive); at Ephrin type-A receptor 5 it was 0.0004 µM (active); in test [3], > 30 µM (inactive); in [4] it was > 30 µM (inactive); at Ephrin type-B receptor 6, 0.0006 µM (active). For the same molecule, the Kd in test [5], in test [6], in test [7], in test [8], in [9] and in test [10] was > 30 µM (inactive) in each case. The Kd in test [11], in test [12], in test [13] and in test [14] was > 30 µM (inactive) throughout.

On to `CCn1c(=O)c(-c2cc[nH]n2)cc2c(C)nc(N)nc21` [VOXTALISIB], for which the Kd (in [1]; in [2]; at Ephrin type-A receptor 5; in test [3]; in test [4]; on Ephrin type-B receptor 6) was > 30 µM (inactive) each time. In addition, the Kd in test [5], in test [6], in [7], in test [8], in [9] and in [10] was > 30 µM (inactive) throughout. Also, the Kd in [11], in test [12], in [13] and in [14] was > 30 µM (inactive) in each case.

Values taken from ChEMBL document CHEMBL3991601, “The target landscape of clinical kinase drugs” (Science, 2017).
